Measured values reported in ChEMBL document CHEMBL3399957, “Synthesis and SAR studies of analogues of 4-(3,3-dimethyl-butyrylamino)-3,5-difluoro-N-thiazol-2-yl-benzamide (Lu AA41063) as adenosine A2A receptor ligands with improved aqueous solubility” (Bioorg Med Chem Lett, 2015).
In brackets after ≈: the same amount, converted by molar mass.

Legend:
[1] = biological target: T1, Adenosine receptor A2a (Homo sapiens, UniProt P29274); test: Antagonist activity at human adenosine A2A receptor
[2] = biological target: T1, Adenosine receptor A2a; test: Displacement of radioligand from human adenosine A2A receptor at 1000 nM relative to control
[3] = Aqueous solubility of the compound; format: physicochemical; settings: buffer
[4] = biological target: T2, Cytochrome P450 1A2 (Homo sapiens, UniProt P05177); test: Inhibition of CYP1A2 (unknown origin); format: ADME
T2 sequence (P05177 whole entry): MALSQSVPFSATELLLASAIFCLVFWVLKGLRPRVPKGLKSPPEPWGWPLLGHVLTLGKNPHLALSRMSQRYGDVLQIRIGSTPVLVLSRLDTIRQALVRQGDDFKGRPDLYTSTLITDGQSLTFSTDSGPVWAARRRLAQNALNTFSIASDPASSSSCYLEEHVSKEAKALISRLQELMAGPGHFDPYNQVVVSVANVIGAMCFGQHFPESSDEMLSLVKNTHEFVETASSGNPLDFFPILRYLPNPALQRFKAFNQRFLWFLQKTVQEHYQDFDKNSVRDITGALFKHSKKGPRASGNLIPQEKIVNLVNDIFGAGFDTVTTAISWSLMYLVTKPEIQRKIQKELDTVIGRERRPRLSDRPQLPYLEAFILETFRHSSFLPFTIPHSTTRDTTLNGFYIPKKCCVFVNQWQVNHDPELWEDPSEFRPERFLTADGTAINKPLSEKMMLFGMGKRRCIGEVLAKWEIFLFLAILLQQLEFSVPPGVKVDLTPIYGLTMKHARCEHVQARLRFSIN

[5] = biological target: Cytochrome P450 2C9 (Homo sapiens, UniProt P11712); test: Inhibition of CYP2C9 (unknown origin); format: ADME
Chain of Cytochrome P450 2C9 (P11712 whole entry): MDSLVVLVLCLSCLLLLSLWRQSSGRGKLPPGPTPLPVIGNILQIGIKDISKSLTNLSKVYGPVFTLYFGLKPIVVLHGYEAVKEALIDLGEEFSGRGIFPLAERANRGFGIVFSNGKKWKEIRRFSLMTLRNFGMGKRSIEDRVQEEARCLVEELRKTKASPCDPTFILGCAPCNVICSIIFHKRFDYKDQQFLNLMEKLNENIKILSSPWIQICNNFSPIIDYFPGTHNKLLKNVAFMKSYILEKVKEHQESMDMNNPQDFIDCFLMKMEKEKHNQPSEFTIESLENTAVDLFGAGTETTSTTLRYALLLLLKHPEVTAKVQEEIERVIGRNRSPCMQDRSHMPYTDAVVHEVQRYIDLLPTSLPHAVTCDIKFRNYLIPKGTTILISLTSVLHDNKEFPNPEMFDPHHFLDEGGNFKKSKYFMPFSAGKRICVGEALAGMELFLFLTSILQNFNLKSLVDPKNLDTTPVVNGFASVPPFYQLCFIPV

[6] = biological target: Cytochrome P450 3A4 (Homo sapiens, UniProt P08684); test: Inhibition of CYP3A4 (unknown origin); format: ADME
Chain of Cytochrome P450 3A4 (P08684 whole entry): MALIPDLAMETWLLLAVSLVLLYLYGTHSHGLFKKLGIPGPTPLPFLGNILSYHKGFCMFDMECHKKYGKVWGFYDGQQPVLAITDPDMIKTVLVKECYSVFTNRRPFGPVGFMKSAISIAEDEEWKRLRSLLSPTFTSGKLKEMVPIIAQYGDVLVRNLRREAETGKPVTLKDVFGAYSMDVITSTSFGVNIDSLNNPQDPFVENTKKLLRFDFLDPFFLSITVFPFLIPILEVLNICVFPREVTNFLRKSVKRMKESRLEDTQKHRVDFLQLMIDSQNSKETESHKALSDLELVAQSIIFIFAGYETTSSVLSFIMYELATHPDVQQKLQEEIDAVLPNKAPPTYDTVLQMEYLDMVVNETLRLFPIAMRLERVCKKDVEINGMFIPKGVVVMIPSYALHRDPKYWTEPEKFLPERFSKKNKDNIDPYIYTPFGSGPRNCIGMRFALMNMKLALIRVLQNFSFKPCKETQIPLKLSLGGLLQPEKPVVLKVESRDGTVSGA

[7] = biological target: Cytochrome P450 2C19 (Homo sapiens, UniProt P33261); test: Inhibition of CYP2C19 (unknown origin); format: ADME
Chain of Cytochrome P450 2C19 (P33261 whole entry): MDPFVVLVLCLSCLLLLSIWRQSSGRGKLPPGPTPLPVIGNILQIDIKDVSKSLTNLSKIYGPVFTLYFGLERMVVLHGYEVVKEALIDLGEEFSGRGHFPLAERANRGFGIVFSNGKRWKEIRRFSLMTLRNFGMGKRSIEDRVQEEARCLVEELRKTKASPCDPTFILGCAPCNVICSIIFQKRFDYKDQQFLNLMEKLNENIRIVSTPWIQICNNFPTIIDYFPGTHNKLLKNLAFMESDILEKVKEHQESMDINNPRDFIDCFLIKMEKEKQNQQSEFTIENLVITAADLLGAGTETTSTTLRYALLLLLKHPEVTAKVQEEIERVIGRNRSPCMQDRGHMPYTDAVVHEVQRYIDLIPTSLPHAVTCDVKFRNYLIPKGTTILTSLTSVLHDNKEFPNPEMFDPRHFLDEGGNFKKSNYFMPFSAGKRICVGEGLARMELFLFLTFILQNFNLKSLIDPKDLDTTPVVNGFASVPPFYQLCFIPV

[8] = biological target: Cytochrome P450 2D6 (Homo sapiens, UniProt P10635); test: Inhibition of CYP2D6 (unknown origin); format: ADME
Chain of Cytochrome P450 2D6 (P10635 whole entry): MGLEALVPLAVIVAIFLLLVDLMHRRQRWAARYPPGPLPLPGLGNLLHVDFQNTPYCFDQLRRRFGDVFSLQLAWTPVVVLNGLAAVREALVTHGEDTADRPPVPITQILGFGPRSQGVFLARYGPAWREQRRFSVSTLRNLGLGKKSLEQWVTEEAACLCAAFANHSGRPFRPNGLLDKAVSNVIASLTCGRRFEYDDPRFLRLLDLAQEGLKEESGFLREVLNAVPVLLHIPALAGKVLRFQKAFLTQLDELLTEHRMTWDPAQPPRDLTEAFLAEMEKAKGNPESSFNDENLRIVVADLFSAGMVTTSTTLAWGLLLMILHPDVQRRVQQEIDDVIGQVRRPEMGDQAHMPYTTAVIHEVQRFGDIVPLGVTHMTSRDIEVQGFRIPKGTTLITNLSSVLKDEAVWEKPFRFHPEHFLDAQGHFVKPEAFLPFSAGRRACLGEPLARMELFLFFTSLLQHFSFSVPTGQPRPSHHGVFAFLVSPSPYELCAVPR

[9] = Intrinsic clearance in human liver microsomes; format: ADME; settings: read-out: CLH (converted)
[10] = Aqueous solubility of the compound at pH 7.4; format: physicochemical; settings: buffer

T1 sequence (P29274 whole entry): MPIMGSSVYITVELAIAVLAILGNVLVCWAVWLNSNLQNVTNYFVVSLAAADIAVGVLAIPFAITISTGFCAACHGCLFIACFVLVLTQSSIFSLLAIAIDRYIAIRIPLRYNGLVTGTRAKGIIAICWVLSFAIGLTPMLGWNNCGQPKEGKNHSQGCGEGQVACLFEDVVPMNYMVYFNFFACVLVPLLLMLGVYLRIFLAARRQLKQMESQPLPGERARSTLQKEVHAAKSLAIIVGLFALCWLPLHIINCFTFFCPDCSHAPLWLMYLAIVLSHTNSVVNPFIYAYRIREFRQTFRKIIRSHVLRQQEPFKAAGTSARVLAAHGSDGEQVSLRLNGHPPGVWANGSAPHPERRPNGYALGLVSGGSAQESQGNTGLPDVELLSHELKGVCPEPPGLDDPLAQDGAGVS

| SMILES | Ki [1] | further results |
| --- | --- | --- |
| CC(C)(C)CC(=O)Nc1ccc(C(=O)Nc2nccs2)cn1 |  | inhibition [2]: 30% |
| CC(C)(C)CC(=O)Nc1ccc(CNc2nccs2)cc1 | > 6 µM |  |
| Cc1cc(C(=O)Nc2nccs2)ccc1NC(=O)CN(C)C |  | inhibition [2]: 1% |
| CCN(CC)CCCCC(=O)Nc1ccc(C(=O)Nc2nccs2)cc1 | 0.83 µM |  |
| CC(C)CCNc1ccc(C(=O)Nc2nccs2)cc1 | 0.73 µM |  |
| O=C(CC1CCNC1)Nc1ccc(C(=O)Nc2nccs2)cc1 (centres undefined) | > 2.1 µM |  |
| CC(C)(C)CC(=O)Nc1ccc(C(=O)Nc2nccs2)nc1 | 0.3 µM | solubility [3]: 0.01 mg/mL (≈ 31.4 µM) |
| CCN(CC)CCCCCC(=O)Nc1ccc(C(=O)Nc2nccs2)cc1 | 0.24 µM |  |
| O=C(CC1CCCN1)Nc1ccc(C(=O)Nc2nccs2)cc1 (centres undefined) | 6.6 µM |  |
| CC(C)(O)CC(=O)Nc1ccc(C(=O)Nc2nccs2)cc1 | 1.1 µM |  |

The next lines start with results.

| Ki [1] | SMILES | further results |
| --- | --- | --- |
| 0.11 µM | CCN(CC)CCC(C)CC(=O)Nc1ccc(C(=O)Nc2nccs2)cc1 (centres undefined) |  |
| 0.067 µM | O=C(CC1CCCC1)Nc1ccc(C(=O)Nc2nccs2)cc1 |  |
| 0.13 µM | CCN(CC)CCCCCCCC(=O)Nc1ccc(C(=O)Nc2nccs2)cc1 |  |
| 0.059 µM | CC(C)CC(=O)Nc1ccc(C(=O)Nc2nccs2)cc1 |  |
| 0.067 µM | Cc1cc(C(=O)Nc2nccs2)ccc1NC(=O)CC(C)(C)C |  |
| 0.11 µM | CC(CCN1CCOCC1)CC(=O)Nc1ccc(C(=O)Nc2nccs2)cc1 (centres undefined) | IC50 [4]: > 40 µM; IC50 [5]: > 40 µM; IC50 [6]: > 40 µM; IC50 [7]: > 40 µM; IC50 [8]: 18 µM; CLint scaled [9]: 0.62 L/h/kg; solubility [10]: 0.116 mg/mL (≈ 288 µM) |
